{
  "source": "patent US20260069610A1",
  "about": "“INHIBITION OF EFFEROCYTOSIS AS A TREATMENT TO PREVENT BONE LOSS AND INCREASE BONE DENSITY AND STRENGTH” (University of Rochester, priority 2022, published 2026)",
  "key": {"[1]": {"test_system": "primary human MSCs (hMSCs)", "assay": "Efferocytosis assay with pharmacological inhibition of mitochondrial fission, hMSCs", "format": "cell-based", "settings": "pre-treated with 25 μM Mdivi for 1 h, end stage PMN for 24 h", "description": "(§1) FIGS. 6A, 6B, and 6C show quantification via flow cytometry of viability, end stage neutrophil (PMNs) engulfment, and efficiency (mean fluorescent intensity, MFI) of hMSCs pre-treated with 25 μM Mdivi for 1 h and then given end stage PMN for 24 h. […] N=3, Mean±SD shown on graphs ** p<0.01, *** p<0.001, (1-test or ANOVA).\nPrimary human MSCs (hMSCs) cells (Lonza) were plated at 2×10^4 per cm^2 in αMEM+10% FBS+1% pen-strep and incubated in 5% O2/5% CO2/37° C. until 80% confluent. Neutrophils were isolated from human peripheral blood via Mono-Poly resolving medium (MP Biomedicals, Inc) according to manufacturer's instructions and incubated in RPMI+10% FBS+10 mM HEPES overnight (18-20 h) at 37° C./5% CO2 as previously described (Casanova-Acebes M, et al. Cell 2013; 153:1025-35). hMSCs were treated with 25 μM Mdivi for 1 h prior to giving 20 nM efluro670 (ThermoFischer) stained end-stage neutrophils in excess (1:10) for 24 h. Cells were then washed 3× with PBS, imaged, and collected for flow cytometry analysis.\nAll samples were run on a LSRII flow cytometer: 3 lasers, 355 nm, 488 nm, and 633 nm (BD Biosciences). Analysis was performed using FlowJo version 10.8 (Tree Star). Sorting was done on a FACSAria II with 405-, 488-, 532-, and 633 nm lasers (BD Biosciences). All flow cytometry equipment is housed and quality controlled within the URMC Flow Cytometry core."}, "[2]": {"test_system": "primary human MSCs (hMSCs)", "assay": "Alkaline phosphatase measurement (osteoblastic differentiation) with inhibition of mitochondrial fission, hMSCs", "format": "cell-based", "settings": "for osteoblastic differentiation potential (alkaline phosphatase) of hMSCs: co-treatment with 25 μM Mdivi and PMN", "description": "as §1\nCells were washed with PBS 3× and then fixed with formalin for 30 min at room temperature (RT). Following fixation, the cells were washed with water 3× and left to sit for 15 min at RT while preparing alkaline phosphatase (AP) staining. To prepare the AP stain, 5 mg Naphthol AS MX-PO4 was dissolved in 200 μL of N,N-dimethylformamide (DMF), 25 mL 0.2 M Tris pH 8.3, and 25 mL water. Red Violet LB salt (30 mg) was added to solution, vortexed, and filter through 45 μm filter. After incubation with AP stain for 45 min RT, cells were washed with water 3× and then stained with 2.5% silver nitrate for 30 min RT in a ventilated area, then washed with water and air dried. All plates were imaged via light microscopy and quantified for osteoblastic formation using ImageJ software.\nCells that performed efferocytosis in the presence or absence of Mdivi, were washed and stained for AP as described above. Wells were photographed, and images were analyzed using ImageJ for staining intensity."}, "[3]": {"test_system": "ST2 cells", "assay": "Initial toxicity studies in ST2 cells", "format": "cell-based, murine", "settings": "ST2 cells (stromal cell line)"}, "[4]": {"test_system": "primary human MSCs", "assay": "Initial toxicity studies in primary human MSCs", "format": "cell-based"}, "[5]": {"test_system": "ST2 cells", "assay": "In vitro efferocytosis assay, ST2 cells with end stage neutrophils, flow cytometry", "quoted_text": "ST2 cells, a bone marrow-derived mesenchymal stromal cell line, were plated at 2×10^4 per cm^2 in αMEM without ascorbic acid (Gibco)+10% FBS+1% pen-strep and incubated in 21% oxygen at 37° C. until 80% confluency. […] End-stage neutrophils were washed with PBS and fluorescently labeled with 20 nM efluro670 (ThermoFischer) according to manufacturer's instructions. Targets (neutrophils or apoptotic lymphocytes) were given in excess (1 MSC: 10 Target) to plated MSCs and incubated for up to 24 h. Cells were then washed 3× with PBS, imaged, and collected for flow cytometry analysis."}, "[6]": {"test_system": "macrophages", "settings": "targeting via clodronate; cited from earlier work"}},
  "note": "Entries after “also recorded” stand apart in the source; their conditions may differ.",
  "data": [
    {"smiles": "COc1cc(-n2c(S)nc3ccccc3c2=O)c(Cl)cc1Cl", "note": "[Mdivi]", "values": [
      {"measurement": "efficiency (MFI) of efferocytosis by hMSCs", "setting": "[1]", "result": "decreased"},
      {"measurement": "overall rate of efferocytosis (end stage PMN engulfment) by hMSCs", "setting": "[1]", "result": "decreased; also recorded: decreases efferocytic activity in MSCs"},
      {"measurement": "viability of hMSCs", "setting": "[1]", "result": "without impacting their viability"},
      {"measurement": "overall rate of efferocytosis (end stage PMN engulfment) by hMSCs", "setting": "[1]; listed as MDivi", "result": "decreases human MSC (hMSC) efferocytosis"},
      {"measurement": "osteoblastic differentiation (alkaline phosphatase) of hMSCs", "setting": "[2]; Mdivi treatment in the absence of PMN", "result": "trending increase in osteoblastic differentiation; also recorded: increases osteoblastic differentiation independent of efferocytic activity"},
      {"measurement": "osteoblastic differentiation potential (alkaline phosphatase) of hMSCs", "setting": "[2]", "result": "rescued the osteoblastic differentiation potential; also recorded: rescues the defect in osteoblastic differentiation"},
      {"measurement": "osteoblastic differentiation potential (alkaline phosphatase) of hMSCs", "setting": "[2]; listed as MDivi", "result": "restores MSC osteoblastic differentiation"}
    ]},
    {"smiles": "CN1CCN(Cc2ccc(Nc3ncc(Cl)c(Nc4ccccc4S(=O)(=O)N(C)C)n3)cc2)CC1", "note": "[TP0903]", "values": [
      {"measurement": "toxicity", "setting": "[3]", "result": "low toxicity"},
      {"measurement": "toxicity", "setting": "[4]", "result": "low toxicity"},
      {"measurement": "efferocytosis by ST2 cells", "setting": "[5]; 3 and 24 hrs, pre treated with 100 nM TP0903 for 1 hr, excess (5 PMN: 1 MSC) end stage hPMNs", "result": "blocks efferocytosis for a short duration"},
      {"measurement": "neutrophil uptake by MSCs", "setting": "[5]; 3 hours after neutrophil addition, flow cytometry", "result": "significantly reduced"}
    ]},
    {"smiles": "O=P(O)(O)C(Cl)(Cl)P(=O)(O)O", "note": "[clodronate]", "values": [
      {"measurement": "bone loss", "setting": "[6]", "result": "did not result in bone loss"}
    ]}
  ]
}
